# Experiments:
# [1] = Toxicity in Artemia salina; format: organism-based; settings: in vivo, read-out: LD50 (the source's name)
# [2] = Binding affinity to cannabinoid receptor in rat brain membrane assessed as cannabinomimetic activity; format: cell membranes
SMILES,LC50 [1] [µg/mL],Ki [2] [µM]
CCCCCCC[C@@H]1C[C@H]1CCC(=O)O/C=C\C=C\COC(C)=O [DEBROMOGRENADINE],5,4.7
CCCCCCC[C@@H]1C[C@H]1CCC(=O)NCCc1ccccc1 [GRENADAMIDE C],5,4.7
